Several values for one entry are separate records, joined by “and”; a condition that tells them apart may be missing. Identical values can stand only once.
System: rats with middle cerebral artery occlusion (MCAO)
Test: Cylinder test (overall asymmetry, total movement) after MCAO
Assay type: in vivo, Sprague Dawley rats
Design: Cylinder Test (Total Movement) / Cylinder Test (Total Movement), Mean: unit not given here
Settings: for Cylinder Test (Total Movement) / Cylinder Test Score (Overall Asymmetry (%)): individual animals and group Mean; for Cylinder Test (Total Movement), Mean: N 15
Excerpt: In particular, the MCAO model in Sprague Dawley rats that was utilized in the experiments presented below mimics the conditions in human ischemic stroke. In this model, focal cerebral infarcts were made by permanent occlusion of the proximal right middle cerebral artery (MCA) using a modification of the method of Tamura et al. (No To […] 1986; 38:747-51). Briefly, the temporalis muscle was bisected and reflected through an incision made midway between the eye and the ear canal. The proximal MCA was exposed through a subtemporal craniectomy without removing the zygomatic arch and without transecting the facial nerve. […] In this experiment, Sprague Dawley rats were anesthetized, subjected to a surgery resulting in middle cerebral artery occlusion (MCAO), treated with and without 4-aminopyridine and behavioral assessments were performed as described below. Treatment was initiated at 4 weeks after stroke. Dosing and Treatment: Rats were treated in accordance with the dosing schedule shown in Tables 2A, 2B, 3 and FIG. 2, with each Phase being a two week period of time. A solution of 4-AP was used in this experiment. […] Vehicle control treatment was WFI delivered at 2 mL/kg by gastric gavage. […] Starting on day 30 after MCAO (Day 30, start of phase 1), the animals received gavage dosing of solutions (2 mL/kg) approximately 12 hours apart, for a total of five doses. The same schedule was repeated with different treatment on Day 44 and Day 58 for phase 2 and 3 of the study, respectively. Animals were not treated during the 10 days between phases (washout period). Treatment groups: Dosing was started 4 weeks after MCAO surgery. During these 4 weeks, weekly behavioral assessments, as defined below, were performed. […] Animals were given the first dose and behavioral assessments were performed starting 60 minutes after dosing. Animals then received the second dose that day at the appropriate time and b.i.d (preferably every 12 hours) thereafter for 2 more days (3 total days of dosing, 5 total doses). One hour after the 5th dose, animals were subjected to behavioral assessments as defined below. Following the final behavioral assessment, drug was withdrawn for 10 or 11 days, behavior was re-assessed, and then animals were re-challenged with a cross-over treatment (Phase 2 of Table 2B) as described in Tables 2A, 2B and 3, followed by the same behavioral testing and dosing regimen. This cross-over was repeated one more time as well (Phase 3 of Table 2B) (see FIG. 2). Cylinder Test: Evaluation was performed at Day -1 (pre-operation), Day 7, Day 21, Day 30, Day 32, Day 44, Day 46, Day 58, Day 60. This test assessed limb use asymmetry. Rats were placed in a transparent cylinder (20 cm in diameter and 30 cm in height) for 3-6 minutes. A mirror was placed behind the cylinder to determine forelimb movements when animal was turned away from the camera. […] Simultaneous use of both left and right forelimbs while contacting the wall during a full rear was also scored. A total number of 20 forelimb placings were counted during a trial. Data was expressed in terms of percent use of the non-impaired and or impaired forelimb relative to the total number of limb use observations for wall movements.

Nc1ccncc1 [4-AP, 4-aminopyridine]
Effect on body symmetry and coordination (cylinder test) (Example 2, 0.63 or 2 mg/kg b.i.d. p.o., started 4 weeks post MCAO, dose-dependent, reversible): effective to improve body symmetry and coordination | Cylinder Test (Total Movement) (Group 1, D 7): 131.00 and 130.00 and 77.00 and 57.00 (2×) and 139.00 and 35.00 and 15.00 and 32.00 and 14.00 and 63.00 | Cylinder Test (Total Movement) (Group 1, D 7, mean): 58.07 | Cylinder Test (Total Movement) (Group 1, D 21): 51.00 and 98.00 and 31.00 and 67.00 and 172.00 and 28.00 and 70.00 and 8.00 and 52.00 and 22.00 and 13.00 | Cylinder Test (Total Movement) (Group 1, D 21, mean): 45.67 | Cylinder Test (Total Movement) (Group 1, D 30): 0.00 (3×) and 75.00 and 2.00 and 10.00 (2×) and 6.00 and 13.00 and 12.00 and 4.00 | Cylinder Test (Total Movement) (Group 1, D 32): 11.00 and 54.00 and 22.00 and 39.00 and 10.00 and 8.00 and 14.00 and 15.00 and 0.00 (2×) and 38.00 | Cylinder Test (Total Movement) (Group 1, D 44): 28.00 and 93.00 and 48.00 and 57.00 and 47.00 and 9.00 and 123.00 and 11.00 and 5.00 and 66.00 | Cylinder Test (Total Movement) (Group 1, D 46): 11.00 and 47.00 and 43.00 and 48.00 and 46.00 and 12.00 and 63.00 and 4.00 and 0.00 and 13.00 | Cylinder Test (Total Movement) (Group 1, D 58): 14.00 and 137.00 and 18.00 and 81.00 and 53.00 and 16.00 and 74.00 and 0.00 and 11.00 and 26.00 | Cylinder Test (Total Movement) (Group 1, D 58, mean): 36.47 | Cylinder Test (Total Movement) (Group 1, D 60): 14.00 and 81.00 and 33.00 and 44.00 and 28.00 and 9.00 and 85.00 and 0.00 and 3.00 and 6.00 | Cylinder Test (Total Movement) (Group 1, D 60, mean): 27.40 | Cylinder Test (Total Movement) (Group 1, D −1): 64.00 and 152.00 and 81.00 and 52.00 and 100.00 and 53.00 and 47.00 and 14.00 and 31.00 and 23.00 and 49.00 | Cylinder Test (Total Movement) (Group 1, D −1, mean): 63.07 | Cylinder Test Score (Overall Asymmetry (%)) (Group 2, D 7): 55.47% and 28.85% and 25.00% and 51.56% and 50.00% and 58.33% and 42.36% and 28.57% and 43.14% and 24.32% and 14.29% | Cylinder Test Score (Overall Asymmetry (%)) (Group 2, D 7, mean): 38.14% | Cylinder Test Score (Overall Asymmetry (%)) (Group 2, D 21): 56.25% and −23.17% and 66.67% (2×) and 49.06% and 46.43% and 25.32% and 47.83% and 22.22% and 17.86% and −25.00% | Cylinder Test Score (Overall Asymmetry (%)) (Group 2, D 21, mean): 27.16% | Cylinder Test Score (Overall Asymmetry (%)) (Group 2, D 30): 51.72% and 0.00% and 4.17% and 56.64% and 27.59% and 75.00% and 20.99% and 27.50% and 16.67% and 20.00% | Cylinder Test Score (Overall Asymmetry (%)) (Group 2, D 32): 63.29% and 18.18% and 33.33% and 54.78% and 22.73% and 62.50% and 16.00% and 20.00% and 3.85% and 27.66% and −33.33% | Cylinder Test Score (Overall Asymmetry (%)) (Group 2, D 44): 58.33% and 14.04% and 38.96% and 52.53% and 11.54% and 54.93% and 7.14% and 18.18% and −27.08% and 17.65% and −20.00% | Cylinder Test Score (Overall Asymmetry (%)) (Group 2, D 44, mean): 14.61% | Cylinder Test Score (Overall Asymmetry (%)) (Group 2, D 46): 28.57% and 34.85% and 31.40% and 19.05% and 29.33% and 40.35% and 46.15% and 16.95% and 42.86% and 2.86% | Cylinder Test Score (Overall Asymmetry (%)) (Group 2, D 46, mean): 24.91% | Cylinder Test Score (Overall Asymmetry (%)) (Group 2, D 58): 29.17% and 50.00% and 66.67% and 54.76% and 30.00% and 88.00% and −7.69% and −16.67% and 62.50% | Cylinder Test Score (Overall Asymmetry (%)) (Group 2, D 60): 64.00% and 20.00% and 14.29% and 62.50% and 10.00% and 76.47% and 13.95% and 0.00% (2×) and −100.00% | Cylinder Test Score (Overall Asymmetry (%)) (Group 2, D −1): −15.58% and −1.96% and −24.39% and 2.38% and 0.00% and 1.65% and −2.20% and −7.58% and 21.05% and 8.45% and −2.70% and −5.66% | Cylinder Test Score (Overall Asymmetry (%)) (Group 2, D −1, mean): −4.05% | Cylinder Test (Total Movement), Mean (Group 3, D 44 after MCAO): 19.13 | Cylinder Test (Total Movement), Mean (Group 3, D 46 after MCAO): 18.73 | Cylinder Test (Total Movement), Mean (Group 3, D 58 after MCAO): 32.33

Source: patent publication US20160058743A1, “METHODS FOR TREATING SENSORIMOTOR IMPAIRMENTS ASSOCIATED WITH CERTAIN TYPES OF STROKE USING AMINOPYRIDINES” (ACORDA THERAPEUTICS, INC., priority 2013, published 2016)
